Results: publication PMC8101618, “Comparable Initial Engagement of Intracellular Signaling Pathways by Parathyroid Hormone Receptor Ligands Teriparatide, Abaloparatide, and Long‐Acting PTH” (JBMR Plus, 2021)

Columns and labels:
SIK = settings: cultured osteocytes and in vivo; cited from earlier work
Description: Although it is well‐established that PTH‐mediated increases in bone formation require actions in osteocytes,^( ^19 , ^23 ^) the signaling events downstream of the PTH1R in osteocytes have remained elusive. We recently described a new signaling pathway that relays information from the PTH1R to the nucleus in osteocytes.^( ^24 ^) A crucial step in this cascade involves cyclic AMP (cAMP)‐mediated inhibition of salt inducible kinase 2 (SIK2). Importantly, PTH1R‐induced SIK2 phosphorylation/inactivation occurs rapidly (within 1 min of receptor engagement by hPTH (1‐34)) and then diminishes.^( ^24 ^ ...

human PTH1R = experiment: β-arrestin2-YFP clustering in GBR-24 cells; assay type: cell-based; settings: TMR-labeled ligands 30nM, 15 min, room temperature; β-arrestin2-YFP HEK293 cells (GBR-24) transiently transfected with human PTH1R
Method: Recruitment of β‐arrestin was assessed in HEK293 cells stably transfected to express β‐arrestin2‐YFP^( ^36 ^) and glosensor (GBR‐24 cells)^( ^34 ^) and transiently transfected to express the hPTH1R or mDsRed‐hPTH1R in which the monomeric Discosoma sp. red fluorescent protein is inserted in the E2 region of the receptor's extracellular domain. Cells were treated with each PTH1R ligand and imaged by fluorescent microscopy as described above (see 2.4 Internalization). The quantification of colocalizations between β‐arrestin2YFP and TMR‐ligands were performed by ImageJ software (NIH, Bethesda, MD, USA; https://imagej.nih.gov/ij/) using Just Another Colocalization Plugin (JACoP) and indicated as cytofluorograms.
Recruitment of the intracellular scaffolding proteins β‐arrrestin1/2 is a well‐characterized step that occurs following activation and GRK‐dependent phosphorylation in multiple G‐Protein‐Coupled Receptors (GPCRs) signaling systems.^( ^39 ^) β‐arrestin recruitment is traditionally thought to lead to signal termination due to receptor internalization. […] For this, HEK293 cells stably expressing YFP‐tagged β‐arrestin2 (GBR‐24 cells) were transiently transfected with human PTH1R cDNA, then treated with TMR‐labeled PTH ligands at 30nM for 15 min at room temperature. Thereafter, cells were rinsed, fixed, and viewed by epifluorescent microscopy.

[1] = test system: human PTH1R-pHluorin2-GFP; experiment: internalization using GFP^pHs fluorescence (GPG-10 cells); assay type: cell-based; settings: continuous treatment 90 min, range of doses; ratio 485/405 nm excitation, emission 535 nm; pH 7.4; n = 6 independent experiments
Method: Receptor internalization was assessed in the HEK293 cell line stably transfected with human PTH1R‐pHluorin2‐GFP (GPG‐10 cells).^( ^33 , ^34 ^) Confluent monolayers of cells in black‐walled, 96‐well plates were incubated in HBSS with BSA (0.1% wt/vol) and HEPES buffer (pH 7.4, 10mM). Peptides were added and wells were analyzed by recording fluorescence readouts with excitation at 485 or 405 nm and emission at 535 nm. Data were analyzed as a ratio of fluorescence intensity following excitation at 485/405 nm over the course of 90 min, and the area under the curve (AUC) values for each time course were plotted as a function of ligand concentration.
A complementary approach was used to visualize ligand‐dependent colocalization of PTH1R and β‐arrestin2. For this, β‐arrestin2‐YFP–expressing cells were transiently transduced with a plasmid encoding a dsRed‐tagged version of human PTH1R. […] In that study, multiple ligand concentrations were used and the responses were assessed at the peak response time, which was generally ~5 min after ligand addition.^( ^42 ^) To explore differences in receptor internalization in more detail, we used constructs where the PTH receptor is fused to a pH‐sensitive GFP variant (GFP^pHs) which changes its fluorescent signal in acidic endosomes. […]

HDAC4 S246, HDAC5 S259 = experiment: HDAC4/5 phosphorylation immunoblotting in Ocy454 cells; assay type: cell-based, murine; settings: 10nM, 1 hour (Supplementary Fig. S1)
Method: For immunoblotting, cells were prepared as described.^( ^37 ^) Whole cell lysates were prepared using TNT (Tris‐NaCl‐Tween buffer, 20mM Tris‐HCl pH 8, 200mM NaCl, 0.5% Triton X‐100 containing protease inhibitor [PI], 1mM NaF, 1mM dithiothreitol [DTT], 1mM vanadate). Adherent cells were washed with ice cold PBS, then scraped into TNT buffer on ice. Material was then transferred into Eppendorf tubes kept on ice, vortexed at top speed for 30 s, then centrifuged at 14,000g for 6 min at 4°C. For immunoblotting, lysates or immunoprecipitates were separated by SDS‐PAGE and proteins were transferred to nitrocellulose. […] The next day, membranes were washed, incubated with appropriate horseradish peroxidase (HRP)‐coupled secondary antibodies, and signals were detected with ECL Western Blotting Substrate (Pierce, Rockford, IL, USA), ECL Plus Western Blotting Substrate (Pierce), or SuperSignal West Femto Maximum Sensitivity Substrate (Thermo Scientific, Waltham, MA, USA). […] Quantification was performed using ImageJ.
In cells, SIKs are constitutively active kinases due to upstream LKB1 activation loop phosphorylation,^( ^45 ^) and therefore constitutively phosphorylate their substrates. […] We assessed the effects of different PTH ligands on class IIa HDAC and CRTC phosphorylation at well‐documented SIK phosphorylation sites: HDAC4 S246, HDAC5 S259, and CRTC2 S275. […]

PTH1R = settings: cited from earlier work
Description: Recruitment of the intracellular scaffolding proteins β‐arrrestin1/2 is a well‐characterized step that occurs following activation and GRK‐dependent phosphorylation in multiple G‐Protein‐Coupled Receptors (GPCRs) signaling systems.^( ^39 ^) β‐arrestin recruitment is traditionally thought to lead to signal termination due to receptor internalization.

Compound | PTH-mimicking action (SIK) | β-arrestin2 clustering/recruitment (human PTH1R) | PTH1R internalization (AUC of GFP^pHs fluorescence ratio) [1] | SIK substrate phosphorylation and gene expression changes (HDAC4 S246, HDAC5 S259) | intracellular signaling or PTH1R internalization (PTH1R)
COc1ccc(N2C(=O)N(c3c(C)cccc3Cl)Cc3cnc(Nc4ccc(C5CCN(C)CC5)cc4OC)nc32)nc1 [YKL‐05‐099] | mimic PTH action in cultured osteocytes and in vivo |  |  |  | 
LNleHQLdWKWIQDARRRAWLHKLIAEIHTAEI.NH2 [PTH (7‐36), N‐truncated LA‐PTH analog used as a negative control] |  | fails to stimulate β‐arrestin2 recruitment | internalization‐deficient | completely inactive | does not induce intracellular signaling or PTH1R internalization
